Like-named read-outs stand apart in the source and are kept apart here.
Columns and labels:
hD2 = target: T1, hD2 (Homo sapiens, UniProt P14416); test: Radioligand binding, hD2 receptor ([3H]spiperone)
T1 construct: expressed in transfected cells; host or cells: HEK 293 cells (membrane preparation)
Description: Binding affinities at human monoamine receptors and transporters were assessed as previously reported. A detailed description of the methodology is provided in the Supplementary information.
(§1) Data analysis was performed with Prism software (version 10.1.2, GraphPad Software, Boston, MA, USA). The IC50 values from the radioligand binding assays were determined by nonlinear regression, using three independent concentration-response curves fitted to a one-site model. The Cheng-Prusoff equation was used to calculate Kᵢ values for the competing ligands. EC50 values were determined by applying nonlinear regression to concentration-response curves. Bias factors (β) were calculated based on the relative intrinsic activity approach. More detailed information can be found in the Supplementary information. Mean values for total number of HTR, change in body temperature from pre to post session (Δ°C), and total distance traveled (cm) for each drug dose were compared (p < 0.05) via Welch’s ANOVA with Dunnett’s T3 post test, comparing all doses to respective vehicle controls (0 mg/kg). Welch’s ANOVA with Dunnett’s T3 post test was also used to compare drug concentrations, but the data were compared to DOM in this case. Dose–response relationships for HTR and locomotor activities were plotted using bell-shaped curve fits, while temperature change data were plotted using four-parameter non-linear regression curve fits. The ascending phase of the HTR curve for each drug was used to determine ED50 potency values from four parameter non-linear regression fits. For combined DOM and DOAM administration, the plasma, brain tissue, and brain dialysate drug concentrations were compared using paired t-tests (p < 0.05). Ratios were compared using Holm-Sidak’s post hoc test following a repeated-measures one-way ANOVA (F (1.709, 6.835) = 70.80; p < 0.0001).
3.1 Assessment of receptor and transporter binding affinities
Membrane preparations were prepared from cells transfected with the respective target. The membrane preparations were then incubated with selective radioligands at concentrations equal to the corresponding Kd and displacement of the ligand by the drugs was measured. The difference between total binding and nonspecific binding (determined in the presence of selective competitors) was defined as specific binding of the radioligand to the target receptor. The following transfected cell lines were used for the binding assays: HEK 293 cells (h5-HT1A, h5-HT2A, h5-HT2B, h5-HT2C, and hD2 receptors, hDAT, hNET, and hSERT), Chinese hamster ovary cells (hα 1A receptor), and Chinese hamster lung cells (hα 2A receptor).
3.1.1 Membrane preparations for receptor and transporter binding
For producing membrane preparations, transfected cells were harvested with trypsin/EDTA, washed with ice-cold phosphate buffered saline, and then pelleted by centrifugation (210 × g for 5 min at 4 °C). The pellets were frozen and stored at -80 °C until use. Frozen pellets were resuspended in 20 m L (receptor binding) or 400 m L (transporter binding) buffer (20 mM HEPES -NaOH, 10 mM EDTA, pH 7.4), and homogenized at 1,100 × g for 20 s (receptor binding) or 560 × g for 15 s (transporter binding); the homogenates were then centrifuged at 48,000 × g for 30 min at 4 °C. […]
Competitive binding at the h5-HT1A and h5-HT2A receptor was determined using 0.90 nM [ 3H]8-hydroxy-2-(di-n-propylamine)tetralin ([ 3H]8-OH-DPAT; h5-HT1A receptor agonist) and 0.40 nM [3H]ketanserin (h5-HT2 receptor antagonist) as radioligands. […]

h5-HT2C [1] = target: T2, h5-HT2C (Homo sapiens, UniProt P28335); test: biochemical; format: binding
T2 sequence (P28335 33-458): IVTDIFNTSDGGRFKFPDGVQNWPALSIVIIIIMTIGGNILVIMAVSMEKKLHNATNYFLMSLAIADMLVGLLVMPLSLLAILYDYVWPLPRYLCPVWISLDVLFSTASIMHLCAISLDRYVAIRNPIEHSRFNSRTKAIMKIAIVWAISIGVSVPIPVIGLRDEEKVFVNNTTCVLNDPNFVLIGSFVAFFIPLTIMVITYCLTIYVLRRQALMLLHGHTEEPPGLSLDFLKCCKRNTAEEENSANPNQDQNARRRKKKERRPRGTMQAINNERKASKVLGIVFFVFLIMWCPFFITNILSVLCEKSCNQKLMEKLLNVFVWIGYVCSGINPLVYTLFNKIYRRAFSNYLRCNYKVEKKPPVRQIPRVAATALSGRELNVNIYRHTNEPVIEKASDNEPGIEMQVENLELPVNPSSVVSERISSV

C57BL/6 J mice = test: HTR after single fixed doses prior to brain and blood collection (20 min); format: in vivo, mouse; details: single s.c. dose: DOM 3, DOPR 1, DOBU 3, DOAM 10, 2,5-DMA 10 mg/kg
Description: In these experiments, HTR activity was monitored for 20 min, followed by cardiac puncture and decapitation. Whole blood (~ 300–500 µL per sample) was collected via cardiac puncture, placed in tubes containing 10 µL of heparin (1000 IU/mL), and immediately stored on ice until centrifugation. Blood samples were spun at 3300 rpm at 4 °C and plasma was decanted into vials on dry ice until storage at -80 °C. Whole brains were collected immediately after cardiac puncture. Brains were frozen on dry ice, weighed, then placed into 7-mL homogenizing tubes with ceramic beads, and stored at -80 °C.
as §1, with “For combined DOM and DOAM administration, the plasma, brain tissue, and brain dialysate drug concentrations were compared using paired t-tests (p < 0.05). Ratios were compared using Holm-Sidak’s post hoc test following a repeated-measures one-way ANOVA (F (1.709, 6.835) = 70.80; p < 0.0001).” left out

h5-HT2C [2] = target: T2, h5-HT2C; test: cell-based; details: for Emax: read-out: IP1 formation Emax h5-HT2C (95% CI)

T1 sequence (P14416 whole entry): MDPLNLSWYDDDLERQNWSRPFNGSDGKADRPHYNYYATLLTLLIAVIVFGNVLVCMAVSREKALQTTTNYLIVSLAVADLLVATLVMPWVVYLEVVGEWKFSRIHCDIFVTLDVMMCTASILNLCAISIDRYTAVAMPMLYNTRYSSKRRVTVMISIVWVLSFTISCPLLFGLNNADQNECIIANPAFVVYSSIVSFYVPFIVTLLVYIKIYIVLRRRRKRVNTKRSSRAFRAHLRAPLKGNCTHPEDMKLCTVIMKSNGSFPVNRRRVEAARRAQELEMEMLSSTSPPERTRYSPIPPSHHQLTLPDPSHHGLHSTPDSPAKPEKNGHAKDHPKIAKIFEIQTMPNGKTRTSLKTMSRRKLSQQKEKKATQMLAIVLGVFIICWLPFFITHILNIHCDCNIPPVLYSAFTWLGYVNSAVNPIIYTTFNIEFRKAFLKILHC

CCc1cc(OC)c(CC(C)N)cc1OC (centres unmarked) [DOET, 4-ethyl-2,5-dimethoxyamphetamine]
Ki (hD2): > 13000 nM

CCCCc1cc(OC)c(CC(C)N)cc1OC (centres unmarked) [DOBU, 4-butyl-2,5-dimethoxyamphetamine]
Ki (hD2): > 13000 nM
Ki (h5-HT2C [1]): 60 nM
HTR (C57BL/6 J mice): 37 count/20 min
EC50 (h5-HT2C [2]): 0.13 nM
Emax (h5-HT2C [2]; normalized to maximal effect of 5-HT): 95%

CCCc1cc(OC)c(CC(C)N)cc1OC.Cl (centres unmarked) [DOPR, 4-propyl-2,5-dimethoxyamphetamine hydrochloride]
Ki (h5-HT2C [1]): 47 nM
EC50 (h5-HT2C [2]): 0.93 nM
Emax (h5-HT2C [2]): 99%

COc1ccc(OC)c(CC(C)N)c1.Cl (centres unmarked) [2,5-DMA, 2,5-Dimethoxyamphetamine hydrochloride]
Ki (hD2): > 13000 nM
Ki (h5-HT2C [1]): > 5000 nM
HTR (C57BL/6 J mice): 19 count/20 min
EC50 (h5-HT2C [2]): 124 nM
Emax (h5-HT2C [2]): 103%

COc1cc(CC(C)N)c(OC)cc1C (centres unmarked) [DOM, 4-methyl-2,5-dimethoxyamphetamine]
Ki (hD2): > 7500 nM

CCCCCc1cc(OC)c(CC(C)N)cc1OC (centres unmarked) [DOAM, 4-amyl-2,5-dimethoxyamphetamine]
Ki (hD2): > 13000 nM
Ki (h5-HT2C [1]): 75 nM
HTR (C57BL/6 J mice): 30 count/20 min
EC50 (h5-HT2C [2]): 0.9 nM
Emax (h5-HT2C [2]): 94%
